Assay results: patent publication US20110281947A1, “METHODS OF ADMINISTERING DICLOFENAC COMPOSITIONS FOR TREATING PHOTODAMAGED SKIN” (priority 2004, published 2011)

Experiment: Topical application of NSAID with hyaluronic acid to patients: side effects and pain relief
Assay type: in vivo, human
Conditions: for relief of pain: patients using combination with hyaluronic acid (sodium hyaluronate)
Text: (This may be in part because of the clearing of the hyaluronic acid through the lymphatic system from the site).

## COc1ccc2c(c1)c(CC(=O)O)c(C)n2C(=O)c1ccc(Cl)cc1 [indomethacin]
Dissolved in n-methyl glucamine, applied topically with hyaluronic acid, even at elevated amounts
  major toxic side effects (gastro-intestinal distress, neurological abnormalities, depression): no major toxic side effects occur
  relief of pain: dramatic relief of pain immediately

## O=C(O)Cc1ccccc1Nc1c(Cl)cccc1Cl [diclofenac, Ortho-((2,6-dichlorophenyl)amino)phenylacetic acid]
  relief of pain: dramatic relief of pain immediately
